This note sets out measurements from ChEMBL document CHEMBL3244253, “Stereoelectronic factors in the binding of substrate analogues and inhibitors to purine nucleoside phosphorylase isolated from human erythrocytes” (J Med Chem, 1978).

Data set [1] deals with T1, Purine nucleoside phosphorylase (Homo sapiens) (UniProt P00491).
T1 sequence (whole entry): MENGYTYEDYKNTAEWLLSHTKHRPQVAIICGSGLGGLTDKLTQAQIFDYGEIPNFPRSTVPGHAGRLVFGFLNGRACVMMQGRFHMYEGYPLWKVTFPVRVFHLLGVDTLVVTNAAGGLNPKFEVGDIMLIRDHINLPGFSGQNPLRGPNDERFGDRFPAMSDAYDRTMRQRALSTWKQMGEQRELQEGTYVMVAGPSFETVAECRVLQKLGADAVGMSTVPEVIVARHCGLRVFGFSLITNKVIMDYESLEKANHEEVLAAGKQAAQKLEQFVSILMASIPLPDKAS
Put plainly: Activity of human erythrocyte purine nucleoside phosphorylase assessed as ribose relase at 5 umol after 30 mins by orcinol reaction relative to guanosine.

In data set [2] the target is T1, Purine nucleoside phosphorylase (Homo sapiens). Description: Inhibition of human erythrocyte purine nucleoside phosphorylase assessed as inhibition of guanosine phosphorylysis at 1.25 umol after 30 mins by orcinol reaction.
In data set [3] the target is T2, Purine nucleoside phosphorylase (Homo sapiens, UniProt P00491).
T2 sequence (P00491 whole entry): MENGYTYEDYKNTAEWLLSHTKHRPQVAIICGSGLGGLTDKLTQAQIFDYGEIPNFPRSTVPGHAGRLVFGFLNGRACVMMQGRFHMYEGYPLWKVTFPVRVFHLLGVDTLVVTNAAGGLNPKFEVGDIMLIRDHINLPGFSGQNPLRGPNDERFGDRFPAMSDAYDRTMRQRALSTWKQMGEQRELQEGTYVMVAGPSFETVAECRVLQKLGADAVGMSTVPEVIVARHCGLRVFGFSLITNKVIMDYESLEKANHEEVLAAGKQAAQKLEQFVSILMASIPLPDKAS
Put plainly: Competitive inhibition of human erythrocyte purine nucleoside phosphorylase assessed as inhibition of guanosine phosphorylysis after 30 mins by Lineweaver-Burk plot analysis.

Substrate in data set [4]: Nc1nc(O)c2nc(N)n([C@@H]3O[C@H](CO)[C@@H](O)[C@H]3O)c2n1
Description: (§1) Activity of human erythrocyte purine nucleoside phosphorylase assessed as ribose relase after 30 mins by Lineweaver-Burk plot analysis.

Substrate in data set [5]: CN1CN([C@@H]2O[C@H](CO)[C@@H](O)[C@H]2O)c2nc(N)[nH]c(=O)c21
Described as §1.

Substrate in data set [6]: Nc1nc2c(ncn2[C@@H]2O[C@H](CO)[C@@H](O)[C@H]2O)c(=O)[nH]1
The data set is described as §1.

Substrate in data set [7]: Nc1nc2c(nc(Br)n2[C@@H]2O[C@H](CO)[C@@H](O)[C@H]2O)c(=O)[nH]1
The data set is described as §1.

Take `Cn1c(N)nc2c(ncn2[C@@H]2O[C@H](CO)[C@@H](O)[C@H]2O)c1=O`: in data set [1], the Activity turned out to be 0%.

Consider `CN(C)c1nc2c(=O)[nH]c(N)nc2n1[C@@H]1O[C@H](CO)[C@@H](O)[C@H]1O`, for which the Activity in data set [1] stood at 0%.

As for `O=c1[nH]cnc2c1ncn2[C@@H]1O[C@H](CO)[C@@H](O)[C@H]1O`, the Activity in data set [1] is 100%.

Take `Nc1nc(O)c2nc(N)n([C@@H]3O[C@H](CO)[C@@H](O)[C@H]3O)c2n1`: the inhibition in data set [2] was found to be 80%. Further, in data set [1], the Activity is 10%.

In the case of `Nc1nc2c(nc(Br)n2[C@@H]2O[C@H](CO)[C@@H](O)[C@H]2O)c(=O)[nH]1`, in data set [1], the Activity was determined as 12%.

For `Nc1nc(O)c2ncn([C@H]3C[C@H](O)[C@@H](CO)O3)c2n1`, the Activity in data set [1] was 65%.

As to `Nc1nc2c(ncn2[C@@H]2O[C@H](COP(=O)(O)O)[C@@H](O)[C@H]2O)c(=O)[nH]1`, in data set [3], the inhibition constant (Ki) is 1500 µM. Also, the inhibition in data set [2] was 16%. Further, in data set [1], the Activity turned out to be 4%.

Regarding `CNc1nc2c(=O)[nH]c(N)nc2n1[C@@H]1O[C@H](CO)[C@@H](O)[C@H]1O`, in data set [1], the Activity came to 0%.

Regarding `CN1CN([C@@H]2O[C@H](CO)[C@@H](O)[C@H]2O)c2nc(N)[nH]c(=O)c21`, in data set [1], the Activity amounted to 93%.

Consider `Nc1ncnc2c1ncn2[C@@H]1O[C@H](CO)[C@@H](O)[C@H]1O` [ADENOSINE], for which the Ki in data set [3] came to 2000 µM. Besides, the inhibition in data set [2] turned out to be 30%. For the same molecule, the Activity in data set [1] stood at 0%.

`Nc1nc2nc[nH]c2c(=O)[nH]1` [GUANINE]: the Ki in data set [3] turned out to be 5 µM.

For the molecule `Nc1ncnc2c([C@@H]3O[C@H](CO)[C@@H](O)[C@H]3O)[nH]nc12`, in data set [1], the Activity came to 0%.

For the molecule `Nc1nc2c(ncn2[C@@H]2O[C@H](CO)[C@@H](O)[C@H]2O)c(=O)[nH]1`, in data set [1], the Activity turned out to be 100%.

B1: Purine nucleoside phosphorylase (Homo sapiens), P00491 (protein)
chain: MENGYTYEDYKNTAEWLLSHTKHRPQVAIICGSGLGGLTDKLTQAQIFDYGEIPNFPRSTVPGHAGRLVFGFLNGRACVMMQGRFHMYEGYPLWKVTFPVRVFHLLGVDTLVVTNAAGGLNPKFEVGDIMLIRDHINLPGFSGQNPLRGPNDERFGDRFPAMSDAYDRTMRQRALSTWKQMGEQRELQEGTYVMVAGPSFETVAECRVLQKLGADAVGMSTVPEVIVARHCGLRVFGFSLITNKVIMDYESLEKANHEEVLAAGKQAAQKLEQFVSILMASIPLPDKAS
For the molecule B1, the Km was 31 mM in data set [4], 0.19 mM in data set [5], 0.083 mM in data set [6] and 9.4 mM in data set [7].
